Assays:
human VR1 = molecular target: T1, human VR1 (Homo sapiens, UniProt Q8NER1); assay: Capsaicin-induced Ca2+ influx in the human VR1-transfected CHO cell line (Assay 1); assay type: cell-based; details: human VR1-CHOluc9aeq cells, stimulation with 10 nM capsaicin, Fluo-3 AM / FDSS-3000; compounds of purity about 40 to 90%; read-out: Activity Class (IC50 of capsaicin-induced Ca2+ influx)
T1 construct: expressed in transfected cells
Excerpt: [Measurement of Capsaicin-Induced Ca^2+ Influx in the Human VR1-Transfected CHO Cell Line] (Assay 1)
(1) Establishment of the Human VR1-CHOluc9aeq Cell Line
Human vanilloid receptor (hVR1) cDNA was cloned from libraries of axotomized dorsal root ganglia (WO 00/29577). The cloned hVR1 cDNA was constructed with pcDNA3 vector and transfected into a CHOluc9aeq cell line. The cell line contains aequorin and CRE-luciferase reporter genes as read-out signals. The transfectants were cloned by limiting dilution in selection medium (DMEM/F12 medium (Gibco BRL) supplemented with 10% FCS, 1.4 mM Sodium pyruvate, 20 mM HEPES, 0.15% Sodium bicarbonate, 100 U/ml penicillin, 100 μg/ml streptomycin, 2 mM glutamine, non-essential amino acids and 2 mg/ml G418). Ca^2+ influx was examined in the capsaicin-stimulated clones. A high responder clone was selected and used for further experiments in the project. The human VR1-CHOluc9aeq cells were maintained in the selection medium and passaged every 3-4 days at 1−2.5×10^5 cells/flask ([…]).
(2) Measurement of Ca^2+ influx using FDSS-3000
Human VR1-CHOluc9aeq cells were suspended in a culture medium which is the same as the selection medium except for G418 and seeded at a density of 1,000 cells per well into 384-well plates (black walled clear-base/Nalge Nunc International). Following the culture for 48 hrs the medium was changed to 2 μM Fluo-3 AM (Molecular Probes) and 0.02% Puronic F-127 in assay buffer (Hank's balanced salt solution (HBSS), 17 mM HEPES (pH7.4), 1 mM Probenecid, 0.1% BSA) and the cells were incubated for 60 min at 25° C. After washing twice with assay buffer the cells were incubated with a test compound or vehicle for 20 min at 25° C. Mobilization of cytoplasmic Ca^2+ was measured by FDSS-3000 (λex=488 nm, λem=540 nm/Hamamatsu Photonics) for 60 sec after the stimulation with 10 nM capsaicin. Integral R was calculated and compared with controls.
The data corresponds to the compounds as yielded by solid phase synthesis and thus to levels of purity of about 40 to 90%. For practical reasons, the compounds are grouped in four classes of activity as follows: IC50=A (< or =) 0.1 μM<B (< or =) 0.5 μM<C (< or =) 1 μM<D

T1 sequence (Q8NER1 whole entry): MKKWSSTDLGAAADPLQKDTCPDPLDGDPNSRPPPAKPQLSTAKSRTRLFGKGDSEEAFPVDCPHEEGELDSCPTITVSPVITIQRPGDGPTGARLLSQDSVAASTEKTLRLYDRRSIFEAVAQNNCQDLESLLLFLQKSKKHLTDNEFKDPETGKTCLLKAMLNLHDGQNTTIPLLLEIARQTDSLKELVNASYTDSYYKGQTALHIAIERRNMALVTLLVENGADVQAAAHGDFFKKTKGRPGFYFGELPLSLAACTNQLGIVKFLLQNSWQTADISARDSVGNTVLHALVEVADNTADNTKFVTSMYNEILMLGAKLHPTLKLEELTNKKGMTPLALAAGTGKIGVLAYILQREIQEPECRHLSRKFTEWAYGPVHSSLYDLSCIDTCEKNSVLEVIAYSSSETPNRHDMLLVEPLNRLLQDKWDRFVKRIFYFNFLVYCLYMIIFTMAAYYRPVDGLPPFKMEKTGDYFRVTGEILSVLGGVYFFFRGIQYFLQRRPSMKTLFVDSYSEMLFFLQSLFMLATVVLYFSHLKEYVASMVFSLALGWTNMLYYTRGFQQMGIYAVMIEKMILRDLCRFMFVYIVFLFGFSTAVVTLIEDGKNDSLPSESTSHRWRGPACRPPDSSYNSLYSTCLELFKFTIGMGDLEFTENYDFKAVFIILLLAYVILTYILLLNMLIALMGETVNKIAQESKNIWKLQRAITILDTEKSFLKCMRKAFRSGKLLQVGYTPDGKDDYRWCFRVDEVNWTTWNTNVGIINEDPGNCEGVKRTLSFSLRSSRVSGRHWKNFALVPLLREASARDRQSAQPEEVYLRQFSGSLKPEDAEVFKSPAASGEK

| IC50 (human VR1) [nM] | melting point [°C] | Compound |
| --- | --- | --- |
| < 100 | 199 to 200 | O=C(NCc1ccc(-c2ccc(OC(F)(F)F)cc2)cc1)Nc1cccc2c1CC(O)CC2 (stereo not drawn) [Example 1-43] |
| < 100 | 205 to 206 | CN(C)c1ccc(-c2ccc(CNC(=O)Nc3cccc4c3CC(O)CC4)cc2)cc1 (stereo not drawn) [Example 1-30] |
| < 100 | 217 to 219 | Cc1ccc(-c2cccc(NC(=O)Nc3cccc4c3CC(O)CC4)c2)cc1 (stereo not drawn) [Example 1-1, N-(7-Hydroxy-5,6,7,8-tetrahydronaphthalen-1-yl)-N′-(4′-methylbiphenyl-3-yl)urea] |
| < 100 | 216 to 217 | CSc1ccc(-c2ccc(CNC(=O)Nc3cccc4c3CC(O)CC4)cc2)cc1 (stereo not drawn) [Example 1-46] |
| 500 to 1000 | 193.3 to 196.5 | COc1ccc(-c2cccc(C(=O)Nc3cccc4c3CC(O)CC4)c2)cc1 (stereo not drawn) [Example 2-5] |
| < 100 | 205 to 206 | O=C(NCc1ccc(-c2ccc(F)c(Cl)c2)cc1)Nc1cccc2c1CC(O)CC2 (stereo not drawn) [Example 1-42] |
| < 100 | 194 to 195 | O=C(NCc1cccc(-c2ccc(F)cc2)c1)Nc1cccc2c1CC(O)CC2 (stereo not drawn) [Example 1-55] |
| < 100 | 203 | COc1ccc(-c2cccc(NC(=O)Nc3cccc4c3CC(O)CC4)c2)cc1 (stereo not drawn) [Example 1-14] |
| < 100 | 195 | O=C(Nc1cccc(-c2cccc(OC(F)(F)F)c2)c1)Nc1cccc2c1CC(O)CC2 (stereo not drawn) [Example 1-24] |
| < 100 | 197 to 198 | O=C(NCc1cccc(-c2ccccc2F)c1)Nc1cccc2c1CC(O)CC2 (stereo not drawn) [Example 1-66] |
| < 100 | 188 to 189 | COc1ccc(-c2cccc(CNC(=O)Nc3cccc4c3CC(O)CC4)c2)cc1 (stereo not drawn) [Example 1-73] |
| < 100 | 110 to 112 | C[S+]([O-])c1ccc(-c2cccc(CNC(=O)Nc3cccc4c3CC(O)CC4)c2)cc1 (stereo not drawn) [Example 1-74] |
| < 100 | 209 | O=C(Nc1cccc(-c2cccc(Cl)c2)c1)Nc1cccc2c1CC(O)CC2 (stereo not drawn) [Example 1-18] |
| < 100 | 181 to 182 | Cc1ccc(C)c(-c2ccc(CNC(=O)Nc3cccc4c3CC(O)CC4)cc2)c1 (stereo not drawn) [Example 1-37] |
| < 100 | 216 | O=C(Nc1cccc(-c2ccc(F)c(F)c2)c1)Nc1cccc2c1CC(O)CC2 (stereo not drawn) [Example 1-17] |
| < 100 | 210 | O=C(Nc1cccc(-c2ccc(OC(F)(F)F)cc2)c1)Nc1cccc2c1CC(O)CC2 (stereo not drawn) [Example 1-25] |
| < 100 | 113 to 115 | CSc1ccc(-c2cc(CNC(=O)Nc3cccc4c3CC(O)CC4)ccc2N2CCCCC2)cc1 (stereo not drawn) [Example 1-76] |
| < 100 | 113 to 114 | COc1ccc(OC)c(-c2ccc(CNC(=O)Nc3cccc4c3CC(O)CC4)cc2)c1 (stereo not drawn) [Example 1-36] |
| < 100 | 218 to 219 | O=C(NCc1ccc(-c2cccc(OC(F)(F)F)c2)cc1)Nc1cccc2c1CC(O)CC2 (stereo not drawn) [Example 1-39] |
| < 100 | 228 | O=C(Nc1cccc(-c2ccc(F)cc2)c1)Nc1cccc2c1CC(O)CC2 (stereo not drawn) [Example 1-16] |
| < 100 | 123 to 124 | COc1ccc(OC)c(-c2cccc(CNC(=O)Nc3cccc4c3CC(O)CC4)c2)c1 (stereo not drawn) [Example 1-60] |
| < 100 | 128 to 129 | COc1ccccc1-c1ccc(CNC(=O)Nc2cccc3c2CC(O)CC3)cc1 (stereo not drawn) [Example 1-35] |
| < 100 | 187 to 189 | O=C(Nc1cccc(-c2ccc(F)cc2F)c1)Nc1cccc2c1CC(O)CC2 (stereo not drawn) [Example 1-5] |
| < 100 | 222.1 to 225 | CN(C)c1ccc(-c2ccc(C(=O)Nc3cccc4c3CC(O)CC4)cc2)cc1 (stereo not drawn) [Example 2-2] |
| < 100 | 191 to 192 | O=C(NCc1ccc(-c2cccc(F)c2)cc1)Nc1cccc2c1CC(O)CC2 (stereo not drawn) [Example 1-38] |
| < 100 | 139 to 140 | O=C(NCc1ccc(-c2cc(Cl)ccc2Cl)cc1)Nc1cccc2c1CC(O)CC2 (stereo not drawn) [Example 1-34] |
| < 100 | 129 to 130 | COc1ccccc1-c1cccc(CNC(=O)Nc2cccc3c2CC(O)CC3)c1 (stereo not drawn) [Example 1-61] |
| < 100 | 94 to 96 | O=C(Nc1cccc(-c2ccc(Cl)c(F)c2)c1)Nc1cccc2c1CC(O)CC2 (stereo not drawn) [Example 1-3] |
| < 100 | 202 to 203 | CC(C)c1ccc(-c2cccc(CNC(=O)Nc3cccc4c3CC(O)CC4)c2)cc1 (stereo not drawn) [Example 1-70] |
| < 100 | 215 | CN(C)c1ccc(-c2cccc(NC(=O)Nc3cccc4c3CC(O)CC4)c2)cc1 (stereo not drawn) [Example 1-26] |
